Like-named read-outs stand apart in the source and are kept apart here.
Legend:
TLR7 = molecular target: T1, TLR7 (Mus musculus, UniProt P58681); test: TLR7 inhibition, TNF-α secretion (ELISA) in RAW 264.7; assay type: cell-based; conditions: for TLR7 TI value: therapeutic index, RAW 264.7
T1 construct: endogenous in cells; host or cells: RAW 264.7
T1 sequence (P58681 27-1050): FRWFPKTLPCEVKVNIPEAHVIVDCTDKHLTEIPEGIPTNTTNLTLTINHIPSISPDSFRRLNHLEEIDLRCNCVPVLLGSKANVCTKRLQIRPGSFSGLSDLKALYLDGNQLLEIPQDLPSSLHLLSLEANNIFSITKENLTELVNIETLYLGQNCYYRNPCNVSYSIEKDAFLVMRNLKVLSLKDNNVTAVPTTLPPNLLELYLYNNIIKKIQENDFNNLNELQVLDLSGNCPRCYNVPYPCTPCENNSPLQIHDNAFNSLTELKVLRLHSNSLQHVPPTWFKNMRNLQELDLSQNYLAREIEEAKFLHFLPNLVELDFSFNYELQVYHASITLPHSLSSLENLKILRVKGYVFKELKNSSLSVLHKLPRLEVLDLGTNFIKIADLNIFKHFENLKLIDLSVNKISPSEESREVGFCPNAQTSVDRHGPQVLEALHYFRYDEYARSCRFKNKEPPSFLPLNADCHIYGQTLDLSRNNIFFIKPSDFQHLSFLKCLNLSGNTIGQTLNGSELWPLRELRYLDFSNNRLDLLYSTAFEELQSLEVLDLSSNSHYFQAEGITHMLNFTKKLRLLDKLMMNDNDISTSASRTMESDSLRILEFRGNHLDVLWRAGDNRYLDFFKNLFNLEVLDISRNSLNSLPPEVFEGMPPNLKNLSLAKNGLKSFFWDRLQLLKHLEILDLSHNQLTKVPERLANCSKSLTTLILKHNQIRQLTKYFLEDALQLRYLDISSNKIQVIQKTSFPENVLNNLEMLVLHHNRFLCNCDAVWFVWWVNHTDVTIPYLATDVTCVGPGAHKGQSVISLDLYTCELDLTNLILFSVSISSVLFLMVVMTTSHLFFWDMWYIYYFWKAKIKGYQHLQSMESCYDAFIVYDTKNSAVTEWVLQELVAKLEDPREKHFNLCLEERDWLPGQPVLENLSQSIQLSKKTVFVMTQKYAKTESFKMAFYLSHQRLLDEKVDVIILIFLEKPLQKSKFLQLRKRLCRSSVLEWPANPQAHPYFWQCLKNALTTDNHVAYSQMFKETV
Description: (§1) RAW 264.7 and differentiated THP-1 cells were seeded into 96-well plates at 2 × 10^4 cells per well, while Daudi cells were seeded at 5 × 10^4 cells per well. After stabilization for 30 min, cells were stimulated with specific TLR agonists for 4 or 24 h. Supernatants were diluted and transferred to precoated ELISA plates to measure TNF-α secretion using kits from Invitrogen. Optical absorbance was measured using a BioTek Synergy HTX multimode microplate reader, and data were interpolated using BioTek Gen5 software.
(§2) One-tailed paired Student’s t-tests were performed using Microsoft Excel (Microsoft). Semi-logarithmic conversions and nonregression curve analyses for calculating 50% lethal concentration (LC50) and 50% inhibitory concentration (IC50) values were conducted using GraphPad Prism 7.0 (GraphPad). The therapeutic index was calculated as […]. Animal experimental results are expressed as mean ± standard deviation and analyzed using SPSS v.20 (IBM SPSS Statistics). Homogeneity of variance was assessed using Levene’s test.
The cells were activated with agonistic ligands: […], TLR3 (poly I:C, 2 μg/ml, 24 h), TLR4 (LPS, 10 or 100 ng/ml, 4 h), TLR5 (FLA-ST, 500 ng/ml, 4 h), TLR7 (ORN06/LyoVec, 2 μg/ml, 24 h; and IMQ, 1 μg/ml, 4 h), TLR8 (TL8-506, 2 μg/ml, 24 h) and TLR9 (ODN2395, 1 μM, 4 h) at various concentrations in RAW 264.7 cells, human Daudi cells and THP-1 cells. Data are from at least three independent experiments (n = 3) and statistical differences between the induced case and other cases were analyzed and verified using a one-tailed Student’s t-test (*P < 0.05, **P < 0.01, ***P < 0.001).

mTLR3 = molecular target: T2, mTLR3 (Mus musculus, UniProt Q99MB1); test: TLR3 inhibition, poly I:C-induced mTNFα in RAW 264.7; assay type: cell-based
T2 construct: reduction in TNF-α secretion in mouse RAW 264.7 cells; endogenous in cells; host or cells: RAW 264.7
Description: as §1
as §2, with “test. […]” for “test.”

T2 sequence (Q99MB1 26-905): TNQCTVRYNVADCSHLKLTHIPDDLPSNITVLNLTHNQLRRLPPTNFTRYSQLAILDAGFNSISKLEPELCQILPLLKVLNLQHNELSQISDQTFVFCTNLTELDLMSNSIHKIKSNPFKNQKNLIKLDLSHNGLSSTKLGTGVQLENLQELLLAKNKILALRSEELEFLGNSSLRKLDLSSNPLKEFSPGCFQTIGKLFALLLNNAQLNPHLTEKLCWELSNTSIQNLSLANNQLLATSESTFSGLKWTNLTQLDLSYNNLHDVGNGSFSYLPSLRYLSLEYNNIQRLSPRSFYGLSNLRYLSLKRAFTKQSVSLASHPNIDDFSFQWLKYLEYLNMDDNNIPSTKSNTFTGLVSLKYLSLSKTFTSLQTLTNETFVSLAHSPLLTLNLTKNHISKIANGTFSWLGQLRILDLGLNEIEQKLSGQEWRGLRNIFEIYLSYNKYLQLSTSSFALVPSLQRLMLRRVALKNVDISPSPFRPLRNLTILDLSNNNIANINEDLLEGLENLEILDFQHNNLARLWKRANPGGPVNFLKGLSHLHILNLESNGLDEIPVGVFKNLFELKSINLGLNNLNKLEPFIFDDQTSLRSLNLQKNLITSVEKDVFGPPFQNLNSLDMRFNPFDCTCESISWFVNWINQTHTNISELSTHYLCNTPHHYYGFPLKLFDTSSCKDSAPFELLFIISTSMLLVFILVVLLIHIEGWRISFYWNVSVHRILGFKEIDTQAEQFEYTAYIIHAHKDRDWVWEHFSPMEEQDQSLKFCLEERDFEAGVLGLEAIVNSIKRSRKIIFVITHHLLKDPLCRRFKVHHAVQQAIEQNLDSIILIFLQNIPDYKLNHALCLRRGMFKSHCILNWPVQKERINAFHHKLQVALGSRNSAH

| Structure (SMILES) | IC50 (TLR7) | TLR7 TI value (TLR7) | IC50 (mTLR3) | IC50 (TLR7; RAW 264.7 cell line, read-out: TLR7 IC50 (mTNFα)) |
| --- | --- | --- | --- | --- |
| Cc1cc2c(N)c3c(nc2n1CCCN(C)C)CCCCCC3 [ETI41] | 630 nM | 106.63 | 993 nM |  |
| COc1ccc2c3c(N)c4c(nc3n(CCCN(C)C)c2c1)CCCC4 [ETI60] |  | 75.65 | 372 nM | 680 nM |
